IC50 data for 87 compounds are collected here from the Kinase Knowledgebase extract (Sharma et al. 2016).

For this assay, the target named is PIK3CA (human) (UniProt P42336). The experiment in a line: Assessment of PIK3CA Kinase Activity.
PIK3CA (human), sequence (P42336 whole entry, looked up): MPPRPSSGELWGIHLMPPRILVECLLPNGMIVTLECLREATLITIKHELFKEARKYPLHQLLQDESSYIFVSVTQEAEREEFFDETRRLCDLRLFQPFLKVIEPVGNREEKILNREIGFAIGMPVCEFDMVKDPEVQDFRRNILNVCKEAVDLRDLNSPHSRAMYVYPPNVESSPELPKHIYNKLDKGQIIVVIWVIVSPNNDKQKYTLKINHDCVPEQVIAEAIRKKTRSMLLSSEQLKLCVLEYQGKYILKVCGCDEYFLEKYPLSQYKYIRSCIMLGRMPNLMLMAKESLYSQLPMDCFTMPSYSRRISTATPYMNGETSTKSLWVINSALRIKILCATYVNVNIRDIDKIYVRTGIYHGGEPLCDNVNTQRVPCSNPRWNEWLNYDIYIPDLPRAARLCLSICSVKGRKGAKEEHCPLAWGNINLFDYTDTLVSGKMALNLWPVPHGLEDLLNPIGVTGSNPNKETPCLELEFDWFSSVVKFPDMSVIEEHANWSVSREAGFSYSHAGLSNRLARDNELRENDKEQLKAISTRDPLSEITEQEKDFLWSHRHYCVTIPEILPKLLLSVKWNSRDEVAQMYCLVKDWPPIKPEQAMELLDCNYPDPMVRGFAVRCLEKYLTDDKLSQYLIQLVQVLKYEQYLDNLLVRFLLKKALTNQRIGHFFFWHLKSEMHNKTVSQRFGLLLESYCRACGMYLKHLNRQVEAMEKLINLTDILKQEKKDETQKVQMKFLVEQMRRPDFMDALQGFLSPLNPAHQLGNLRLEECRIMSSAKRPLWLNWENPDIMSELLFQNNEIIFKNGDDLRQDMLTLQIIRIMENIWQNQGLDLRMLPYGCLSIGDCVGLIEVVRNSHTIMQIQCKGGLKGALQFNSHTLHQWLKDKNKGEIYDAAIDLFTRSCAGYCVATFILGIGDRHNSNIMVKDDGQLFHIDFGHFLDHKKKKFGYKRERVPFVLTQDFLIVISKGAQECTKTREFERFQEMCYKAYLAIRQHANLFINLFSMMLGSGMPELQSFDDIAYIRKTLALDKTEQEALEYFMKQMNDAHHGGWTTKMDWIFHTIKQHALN
As to `Cc1nc(-c2cn3c(n2)-c2ccc(-c4cnn(C5CN(C(=O)[C@H](C)O)C5)c4)cc2OCC3)n(C(C)C)n1`, the 50% inhibitory concentration (IC50) is less than 1 µM.
The figure for `CC(C)n1ncnc1-c1cn2c(n1)-c1ccc(N3CCC[C@@H]3C(N)=O)cc1OCC2` is less than 1 µM; for `Cc1nc(-c2cn3c(n2)-c2ccc(C4CCN(C(C)(C)CO)CC4)cc2OCC3)n(C(C)C)n1` it is less than 1 µM; for `CC(C)n1ncnc1-c1cn2c(n1)-c1ccc(-c3ccc(N)nc3)cc1OCC2` it is less than 1 µM.
Then `CC(C)n1ncnc1-c1cn2c(n1)-c1ccc(-c3cnn(CCO)c3)cc1OCC2`, with less than 1 µM.
As to `Nc1nc(-c2cn3c(n2)-c2cc(-c4ccc(Cl)cc4)ccc2OCC3)n(-c2ccccc2Cl)n1`, the IC50 was less than 1 µM.
`Cc1nc(-c2cn3c(n2)-c2cnc(N4C[C@@H](F)C[C@H]4C(N)=O)cc2OCC3)n(C(C)C)n1` yielded an IC50 of less than 1 µM.
Then `O=c1[nH]cccc1-c1ccc2c(c1)-c1nc(-c3ncnn3CC(F)(F)F)cn1CCO2`, with less than 1 µM; and `Cc1cn(C(C)C)c(-c2cn3c(n2)-c2ccc(-c4cnn(CC(C)(C)O)c4)cc2OCC3)n1`, with less than 1 µM.
The figure for `CC(C)n1ncnc1-c1cn2c(n1)-c1cnc(O[C@H](C)C(N)=O)cc1OCC2` is less than 1 µM; for `CC(C)n1ccnc1-c1cn2c(n1)-c1cnccc1OCC2` it is less than 1 µM.
For `Cc1nc(-c2cn3c(n2)-c2ccc(-c4cnn(CC(C)C(=O)O)c4)cc2OCC3)n(C(C)C)n1` (configuration not stated), the IC50 was less than 1 µM.
Then `CC(C)n1ncnc1-c1cn2c(n1)-c1cnc(N3CC[C@H](C#N)C3)cc1OCC2`, with less than 1 µM.
The figure for `CC(C)n1cnnc1-n1cc2c(n1)-c1ccccc1OCC2` is less than 1 µM; for `CC(C)n1nc(N)nc1-c1cn2c(n1)-c1cc(F)c(F)cc1OCC2` it is less than 1 µM.
The figure for `Cc1nc(-c2cn3c(n2)-c2ccc(C(F)F)cc2OCC3)n(C(C)C)n1` is less than 1 µM; for `CC(C)(O)Cn1cc(-c2ccc3c(c2)OCCn2cc(C(=O)N4CCS(=O)(=O)CC4)nc2-3)cn1` it is less than 1 µM; for `CC(C)n1ncnc1-c1cc2n(n1)-c1cc(C(=O)NC3CNC3)ccc1OCC2` it is less than 1 µM.
In the case of `CC(C)n1nc(N)nc1-c1cn2c(n1)-c1ccc(-c3cnn(CCO)c3)cc1OCC2`, the IC50 is less than 1 µM.
The figure for `CC(C)n1nc(N)nc1-c1cn2c(n1)-c1ccc(-c3cn(CCO)cn3)cc1OCC2` is less than 1 µM.
Then `Nc1nc(-c2cn3c(n2)-c2cc(-c4ccccc4)ccc2OCC3)n(-c2ccccc2Cl)n1`, with less than 1 µM; and `N#Cc1ccc2c(c1)-c1nc(-c3nc(N)nn3CC(F)(F)F)cn1CCO2`, with less than 1 µM; and `NC(=O)[C@H](CO)Oc1ccc2c(c1)OCCn1cc(-c3ncnn3CC(F)(F)F)nc1-2`, with less than 1 µM.
Then `CC(C)N1CC(NC(=O)c2ccc3c(c2)-n2nc(-c4ncnn4C(C)C)cc2CCO3)C1`, with less than 1 µM.
`FC(F)(F)Cn1ncnc1-c1cc2n(n1)-c1cc(C3CCNCC3)ccc1OCC2` displayed an IC50 of less than 1 µM.
Turning to `NC(=O)c1ccc2c(c1)OCCc1cn(-c3ncnn3-c3ccc(F)cc3F)nc1-2`, the IC50 was less than 1 µM.
As to `Cc1nc(-c2cn3c(n2)-c2cnc(N)cc2OCC3)n(CC(F)(F)F)n1`, the half-inhibitory concentration (IC50) was less than 1 µM.
On to `CC(C)n1ncnc1-c1cn2c(n1)-c1ccc([C@H](C)C(N)=O)cc1OCC2`, for which the IC50 is less than 1 µM.
Compound `Fc1ccc(-n2ncnc2-n2cc3c(n2)-c2ccc(Br)cc2OCC3)c(F)c1` returned an IC50 of 0.058 µM.
The figure for `CC(C)n1ncnc1-c1cn2c(n1)-c1ccc(C3CCN(CCO)CC3)cc1OCC2` is less than 1 µM; for `CC(C)n1ncnc1-c1cn2c(n1)-c1ccc(CN(C)C(N)=O)cc1OCC2` it is less than 1 µM; for `CC(C)N1CCN(C(=O)c2ccc3c(c2)-c2nc(-c4ncnn4CC(F)(F)F)cn2CCO3)CC1` it is less than 1 µM.
The figure for `CNc1nc(-c2cn3c(n2)-c2ccccc2OCC3)n(C(C)C)n1` is less than 1 µM.
Then `CS(=O)(=O)CCN1CCC(c2ccc3c(c2)-n2nc(-c4ncnn4CC(F)(F)F)cc2CCO3)CC1`, with less than 1 µM; and `Cc1nc(-c2cn3c(n2)-c2ccc(CNC(N)=O)cc2OCC3)n(-c2ccc(F)cc2F)n1`, with less than 1 µM; and `CC(C)n1ncnc1-c1cn2c(n1)-c1ccc(-c3cn(CCO)cn3)cc1OCC2`, with less than 1 µM.
In turn, `CNC(=O)CN1CCN(c2ccc3c(n2)OCCn2cc(-c4ncnn4C(C)C)nc2-3)CC1` yielded an IC50 of less than 1 µM.
The figure for `CC(C)n1ncnc1-c1cn2c(n1)-c1cc(-c3cn[nH]c3)ccc1OCC2` is less than 1 µM; for `CCN1CCC(c2ccc3c(c2)OCCn2cc(-c4ncnn4C(C)C)nc2-3)CC1` it is less than 1 µM.
Then `CC(C)N1CCN(C(=O)c2ccc3c(c2)-c2nc(-c4ncnn4-c4ccccc4Cl)cn2CCO3)CC1`, with less than 1 µM.
Then `CC(C)n1ncnc1-c1cn2c(n1)-c1cnc(O[C@@H](C)C(N)=O)cc1OCC2`, with less than 1 µM; and `CC(C)n1ncnc1-c1cn2c(n1)-c1cnc(N3CCCC3)cc1OCC2`, with less than 1 µM.
As for `CC(C)n1ncnc1-c1cc2n(n1)-c1cc(C(=O)Nc3ccon3)ccc1OCC2`, the IC50 is less than 1 µM.
Regarding `CC(C)n1ncnc1-c1cn2c(n1)-c1ccc(-c3cnn(C(C)(C)C(N)=O)c3)cc1OCC2`, the half-maximal inhibitory concentration (IC50) was less than 1 µM.
Then `Cc1nc(-c2cn3c(n2)-c2cc(C#N)ccc2OCC3)n(C(C)C)n1`, with less than 1 µM; and `Cc1nc(-c2cn3c(n2)-c2cnc(N4CCCC4Cc4ccccc4C)cc2OCC3)n(CC(F)(F)F)n1` (configuration not stated), with less than 1 µM.
Take `CC(C)n1ncnc1-c1cn2c(n1)-c1ccc(N3CC[C@H]3C(N)=O)cc1OCC2`: the IC50 was less than 1 µM.
Consider `CC(C)n1ncnc1-c1cn2c(n1)-c1ccc(CC(=O)NO)cc1OCC2`, for which the IC50 was less than 1 µM.
Then `COC(=O)c1ccc2c(c1)OCCn1cc(-c3ncnn3C(C)C)nc1-2`, with less than 1 µM; and `Cc1nc(-c2ccc3c(c2)OCCn2cc(-c4ncnn4C(C)C)nc2-3)cn1CCO`, with less than 1 µM.
Then `CNC(=O)c1ccc2c(c1)-c1nn(-c3ncnn3C(C)C)cc1CCO2`, with less than 1 µM; and `CC(C)n1ncnc1-c1cn2c(n1)-c1cnc(N3CCC(C)(C)[C@H]3C(N)=O)cc1OCC2`, with less than 1 µM; and `CC(C)n1nc(N)nc1-c1cn2c(n1)-c1ccc(-c3ccc(Cl)cc3)cc1OCC2`, with less than 1 µM.
On to `CC(C)n1ncnc1-c1cn2c(n1)-c1ccc(NCC3(N)COC3)cc1OCC2`, for which the IC50 is less than 1 µM.
The compound `CC(C)n1ncnc1-c1cn2c(n1)-c1ccc(N3CCN(C)CC3)nc1OCC2` had an IC50 of less than 1 µM.
The figure for `COc1ccc2c(c1)OCCn1cc(-c3ncnn3C(C)C)nc1-2` is less than 1 µM; for `Clc1ccc(-c2ccc3c(c2)-c2nc(-c4ncnn4-c4ccccc4Cl)cn2CCO3)cc1` it is less than 1 µM; for `CC(C)n1ncnc1-c1cn2c(n1)-c1cnc(N3CCC(CO)CC3)cc1OCC2` it is less than 1 µM.
The figure for `CC(C)n1ncnc1-c1cn2c(n1)-c1ccc(OC3CC3)cc1OCC2` is less than 1 µM; for `CC(C)n1ncnc1-n1cc2c(n1)-c1cc(C(=O)NCCO)ccc1OCC2` it is less than 1 µM; for `CC(C)n1ncnc1-c1cn2c(n1)-c1ccc(-c3cncn3C3CCCCO3)cc1OCC2` (configuration not stated) it is less than 1 µM.
The figure for `CC(C)n1ncnc1-c1cn2c(n1)-c1ccc(C3CCN(CCS(C)(=O)=O)CC3)cc1OCC2` is less than 1 µM.
`Cc1nc(-c2cn3c(n2)-c2ccc(OC4COC4)cc2OCC3)n(C(C)C)n1` registered an IC50 of less than 1 µM.
With `CC(C)n1ncnc1-c1cn2c(n1)-c1cc(-c3ccc(=O)[nH]c3)ncc1OCC2`, the IC50 was less than 1 µM.
Then `COC(=O)c1ccc2c(c1)OCCn1cc(-c3ncnn3CC(F)(F)F)nc1-2`, with less than 1 µM; and `CNc1cc2c(cn1)-c1nc(-c3ncnn3C(C)C)cn1CCO2`, with less than 1 µM; and `CC(C)(CO)N1CCC(c2ccc3c(c2)-c2nn(-c4ncnn4-c4ccc(F)cc4F)cc2CCO3)CC1`, with less than 1 µM.
For the compound `CONC(=O)c1ccc2c(c1)OCCn1cc(-c3ncnn3C(C)C)nc1-2`, the IC50 is less than 1 µM.
For `CNC(=O)c1ccc2c(c1)OCCn1cc(-c3ncnn3CC(F)(F)F)nc1-2`, the IC50 was less than 1 µM.
Then `NC(=O)[C@@H]1CCCN1c1cc2c(cn1)-c1nc(-c3ncnn3-c3ccc(F)cc3F)cn1CCO2`, with less than 1 µM; and `Cc1nc(-c2cn3c(n2)-c2ccc(OC4CCC4)cc2OCC3)n(C(C)C)n1`, with less than 1 µM; and `COC(=O)c1ccc2c(c1)OCCn1cc(-c3ccccc3C(C)C)nc1-2`, with less than 1 µM.
Then `OCc1nc(-c2cn3c(n2)-c2cnc(N4CCCC4)cc2OCC3)n(CC(F)(F)F)n1`, with less than 1 µM; and `CC(C)n1nccc1-c1cn2c(n1)-c1cnc(Cl)cc1OCC2`, with less than 1 µM; and `Cc1nc(-c2cn3c(n2)-c2ccc([C@@H]4CCNC[C@@H]4O)cc2OCC3)n(C(C)C)n1`, with less than 1 µM.
As for `C[C@H](Oc1ccc2c(c1)OCCn1cc(-c3ncnn3-c3ccc(F)cc3F)nc1-2)C(N)=O`, the IC50 is less than 1 µM.
Then `COC(=O)c1ccc2c(c1)OCCn1cc(-c3cccc(C(F)(F)F)c3)nc1-2`, with less than 1 µM.
For `Cc1nc(-c2cn3c(n2)-c2ccc(CNCC(C)(C)O)cc2OCC3)n(-c2ccc(F)cc2F)n1`, the IC50 is less than 1 µM.
The figure for `CC(C)CC(Oc1ccc2c(c1)OCCn1cc(-c3ncnn3C(C)C)nc1-2)C(N)=O` (configuration not stated) is less than 1 µM; for `CC(C)n1ncnc1-c1cn2c(n1)-c1ccc(C3CN(C(C)(C)C(N)=O)C3)cc1OCC2` it is less than 1 µM; for `CC(C)n1ncnc1-c1cn2c(n1)-c1ccc(N3CCN(CC(=O)N(C)C)CC3)nc1OCC2` it is less than 1 µM.
With `Cc1nc(-c2cn3c(n2)-c2cnc(N4CCCC4C4CCCCN4C)cc2OCC3)n(CC(F)(F)F)n1` (configuration not stated), the half-maximal inhibitory concentration (IC50) is less than 1 µM.
The figure for `Cc1nc(-c2cn3c(n2)-c2cnc(N4CCC[C@H]4C(N)=O)cc2OCC3)n(-c2cc(F)cc(F)c2)n1` is less than 1 µM; for `CC(C)C(Oc1ccc2c(c1)OCCn1cc(-c3ncnn3CC(F)(F)F)nc1-2)C(N)=O` (configuration not stated) it is less than 1 µM; for `CC(C)n1ncnc1-c1cn2c(n1)-c1ccncc1OCC2` it is less than 1 µM.
In turn, `C[C@@H]1CN(C(=O)c2ccc3c(c2)-c2nc(-c4ncnn4CC(F)(F)F)cn2CCO3)C[C@H](C)N1` came in with an IC50 of less than 1 µM.
The figure for `Nc1nc(-c2cn3c(n2)-c2cc(C4CC4)ccc2OCC3)n(CC(F)(F)F)n1` is less than 1 µM.
